Tests used:
[1] = tested on: methane production in rumen liquor; test: In vitro test for methane production (modified Hohenheim Forage value Test, HFT); type: cell-based; conditions: TMR feed, 8 h at 39° C., average of four to eight experiments
Description: In vitro test for methane production: A modified version of the “Hohenheim Forage value Test (HFT)” was used for testing the effect of specific compounds on the rumen functions mimicked by this in-vitro system.
Principle: Feed is gadded into a syringe with a composition of rumen liquor and an appropriate mixture of buffers. The solution is incubated at 39° C. After 8 hours the quantity (and composition) of gas phase produced is measured and put into a formula for conversion.
Sample weighing: The feed stuff (i.e. TMR (44% concentrate, 6% hay, 37% maize silage and 13% grass silage) is sieved to 1 mm and weighed exactly into 64 syringes. 4 of these syringes are the substrate controls, which display the gas production without the effect of the tested compounds. 4 other syringes are positive control (3-NOP, 10 µM). When needed, 4 syringes contain a carrier control (if the test compounds need a carrier). The remaining syringes contain the test substances, by groups of 4 syringes, in the amounts as indicated in table 1.
Extraction of the rumen liquor: 750 ml of rumen liquor are added to approximately 1,400 ml of medium solution under continued agitation and CO2-gassing.
Filling the syringes, incubation and determining gas volumes and VFA values: The diluted rumen fluid (24 ml) is added to the glass syringe. The syringes are then incubated for 8 hours at 39° C. under gentle agitation. After 8 hours, the volume of gas produced is measured, and the percentage of methane in the gas phase is determined by gas chromatography.
The food fermented was artificial TMR (44% concentrate, 6% hay, 37% maize silage and 13% grass silage). Gossypol was obtained from Sigma-Aldrich (G8761), and used at a concentration as outlined in table 1.3-Nitrooxy-propanol (3-NOP) was used at the concentration as outlined in table 1. The respective in vitro data was linked to dosage regimes correlating to the same methane reduction in vivo.

[2] = tested on: methane production in ruminants; conditions: reported in WO2012/084629; cited from earlier work

Cc1cc2c(C(C)C)c(O)c(O)c(C=O)c2c(O)c1-c1c(C)cc2c(C(C)C)c(O)c(O)c(C=O)c2c1O [G, Gossypol]
Total methane change, found ([1]; single substance at 5 μM): −1 % vs. control
Total methane change, found ([1]; single substance at 10 μM): −11 % vs. control
Total methane change, found ([1]; single substance at 20 μM): −15 % vs. control
Total methane change, found ([1]; single substance at 100 μM): −69 % vs. control

O=[N+]([O-])OCCCO [3-NOP, 3-Nitrooxypropanol]
Total methane change, found ([1]; single substance at 2.5 μM): −12 % vs. control
Total methane change, found ([1]; single substance at 5 μM): −54 % vs. control
Total methane change, found ([1]; single substance at 10 μM): −98 % vs. control
Reduction of methane production in ruminants (in words) [2]: significantly reduce the methane production

Source: patent US20240207203A1, “NOVEL USE” (DSM IP Assets B.V., priority 2021, published 2024)
